Starred links: 1 amine or outer side, 2 acyl side, 3 side chain; linkers in the order of their positions; H or OH if unused. Residues, ends and D or L forms follow the SMILES beside them. Groups on a side chain read outwards from the residue. *: point of attachment. Glutaryl = O=C(CCCC(=O)[*:2])[*:1]; NHNH2 = NN*
Key:
Assay type in all cases: cell-based
A549 cells = test: EGFP mRNA delivery, robotic library screening, A549
Description: (§1) Cells were seeded in a 96 well plate the day before the experiment at a concentration of 50,000 cell/mL (100 μL/w) in DMEM+10% FBS+1% Gln-Abt. For robotic library screening, the delivery of EGFP-mRNA (from TriLink, fully substituted with 5-methoxyuridine, capped and polyadenylated; TriLink, CleanCap® EGFP mRNA (5moU), ref. L-7201) in six different cell lines was performed. Amphiphilic molecule stock solutions were prepared in DMSO as described above and diluted in DMEM to afford a range of concentrations. The solutions of EGFP-mRNA/amphiphilic molecule complexes were freshly prepared prior to the transfection experiments. 35 μL of the corresponding amphiphile were added to 10 μL of a solution of EGFP-mRNA at 10 ng/μL in DMEM. The mixture was shaken for 30 min at room temperature before the addition to the cells. The cell medium was aspirated, and cells were washed with PBS twice. Cells were covered with 39 μL of DMEM and 11 μL of the complex's solution were added to the cells and incubated for 4 h (final concentration of peptide=2.5, 5 and 10 μM; final concentration of EGFP-mRNA=25 ng/well). After the incubation, the medium was replaced by 100 μL of fresh DMEM supplemented with 10% FBS. The total EGFP fluorescence was quantified after 72 h in a well plate reader. Amphiphile transfection efficiency was compared and normalized to Lipofectamine® MessengerMax efficiency (value of 1 in Tables 1-5 and 7; double underlined numbers). All experiments were done in triplicate.
(§2) Tables 1-7: RLuc (pDNA) or EGFP (mRNA) expression levels were normalized to Lipofectamine reagents (value=1) and expressed as fold-times signal increase. In the case of siRNA, the siRNA treated cells fluorescence was compared with siMOCK control fluorescence, while Cas9-RNP mediated knockout was measured against the fluorescence of untreated cells. In both siRNA and Cas9-RNP, values are expressed as % fluorescence reduction. Amphiphile concentration was 5 μM in all cases. All experiments were performed in triplicate.
(§3) Tables 14-19 show the mean (triplicates) fluorescence intensity measured after the transfection of EGFP mRNA by different amphiphiles at different concentrations in a variety of cell lines. Background fluorescence values, accounted by untreated control cells, were subtracted for processing.

ARPE19 cells = test: EGFP mRNA delivery, robotic library screening, ARPE19
Description: as §1, §2, §3

HCT116 cells = test: EGFP mRNA delivery, robotic library screening, HCT116
Description: as §1, §2, §3

Hek293 cells = test: EGFP mRNA delivery, robotic library screening, Hek293
Description: as §1, §2, §3

[1] = test system: ARPE19 cells expressing EGFP; test: EGFP-targeting siRNA delivery (GFP silencing vs siMOCK), ARPE19
Description: To generate an EGFP expressing HeLa cell line, HeLa cells were transfected with EGFP pDNA (pEGFP-C1, Clontech) and stable transfectants were selected with 400 μg/mL of G-418 (Millipore). Green clones were selected by epifluorescence microscopy and tested for EGFP expression stability through several passages. […] All other EGFP-expressing cell lines were obtained in a similar way from parent non-EGFP-expressing cell lines.
Cells expressing EGFP were seeded in a 96 well plate the day before the experiment at a concentration of 50,000 cell/mL (100 μL/w) in DMEM+10% FBS+1% Gln-Abt. For robotic library screening, the delivery of an EGFP-targeting siRNA (EGFP: enhanced green fluorescent protein, Ambion® Silencer® GFP Positive Control siRNA (siGFP) (AM4626)) in six different cell lines expressing EGFP was performed. […] The mixture was shaken for 30 min at room temperature (rt) before the addition to the cells. The cell medium was aspirated, and cells were washed twice with PBS. Finally, 50 μL of the solution of siRNA/amphiphile complexes were added to the cells and incubated for 4 h. After transfection, the medium was replaced by 100 μL of fresh DMEM supplemented with 10% FBS. The fluorescence knockdown was quantified after 72 h in a plate reader, by comparison with cells transfected with a non-targeting siRNA control (siMOCK, Silencer™ Negative Control No. 1 siRNA (siMOCK) (AM4611)). EGFP knockdown was compared with Lipofectamine® RNAiMAX silencing efficiency (30-60% depending on cell line, defined with a numeric value in the below tables). All experiments were done in triplicate.
as §2
Tables 20-25 show the mean (triplicates) percentage of GFP-silencing, accounted by fluorescence intensity decrease relative to a non-targeting siRNA (siMOCK) control, measured after the transfection of siRNA by different amphiphiles at different concentrations in a variety of cell lines. Background values, accounted by untreated control cells, were subtracted for processing.

In the case of CC(=O)N[C@@H](CCCNC(=N)N)C(=O)N[C@@H](CCCCNC(=O)CCCC(=O)NN)C(=O)N[C@@H](Cc1c[nH]cn1)C(=O)N[C@@H](CCCNC(=N)N)C(=O)N[C@@H](CCCCNC(=O)CCCC(=O)NN)C(=O)N[C@@H](CCCCNC(=O)CCCC(=O)NN)C(=O)N[C@@H](Cc1c[nH]cn1)C(N)=O [7.3(L-H), Ac-RK*HRK*K*H-NH2] (Ac-RK([Glutaryl-NHNH2])HRK([Glutaryl-NHNH2])K([Glutaryl-NHNH2])H-NH2), the “mean fluorescence intensity (EGFP mRNA)” value (A549 cells; Dodecanal, 2.5 μM) was 570, the “mean fluorescence intensity (EGFP mRNA)” value (A549 cells; Dodecanal, 5 μM) was 375 and the “mean fluorescence intensity (EGFP mRNA)” value (A549 cells; Dodecanal, 10 μM) was 587. For the same compound, the “mean fluorescence intensity (EGFP mRNA)” value (A549 cells; Myristoleyl, 2.5 μM) was 19549, the “mean fluorescence intensity (EGFP mRNA)” value (A549 cells; Myristoleyl, 5 μM) was 6729 and the “mean fluorescence intensity (EGFP mRNA)” value (A549 cells; Myristoleyl, 10 μM) was 2718. The “mean fluorescence intensity (EGFP mRNA)” value (A549 cells; Oleyl, 2.5 μM) was 12392, the “mean fluorescence intensity (EGFP mRNA)” value (A549 cells; Oleyl, 5 μM) was 4708 and the “mean fluorescence intensity (EGFP mRNA)” value (A549 cells; Oleyl, 10 μM) was 1954. For the same compound, the “mean fluorescence intensity (EGFP mRNA)” value (A549 cells; Palmitoleyl, 2.5 μM) was 52764, the “mean fluorescence intensity (EGFP mRNA)” value (A549 cells; Palmitoleyl, 5 μM) was 19296 and the “mean fluorescence intensity (EGFP mRNA)” value (A549 cells; Palmitoleyl, 10 μM) was 3995. The “mean fluorescence intensity (EGFP mRNA)” value (A549 cells; Petroselinyl, 2.5 μM) was 9125, the “mean fluorescence intensity (EGFP mRNA)” value (A549 cells; Petroselinyl, 5 μM) was 2712 and the “mean fluorescence intensity (EGFP mRNA)” value (A549 cells; Petroselinyl, 10 μM) was −119. The “mRNA delivery relative to Lipofectamine MessengerMAX” value (A549 cells; palmitoleyl aldehyde) was “two times better”, the “mean fluorescence intensity (EGFP mRNA)” value (ARPE19 cells; Myristoleyl, 2.5 μM) was 22958 and the “mean fluorescence intensity (EGFP mRNA)” value (ARPE19 cells; Myristoleyl, 5 μM) was 6178. For the same compound, the “mean fluorescence intensity (EGFP mRNA)” value (ARPE19 cells; Myristoleyl, 10 μM) was 1216, the “mean fluorescence intensity (EGFP mRNA)” value (ARPE19 cells; Oleyl, 5 μM) was 9014 and the “mean fluorescence intensity (EGFP mRNA)” value (ARPE19 cells; Oleyl, 10 μM) was 4676. The “mean fluorescence intensity (EGFP mRNA)” value (ARPE19 cells; Palmitoleyl, 2.5 μM) was 35030, the “mean fluorescence intensity (EGFP mRNA)” value (ARPE19 cells; Palmitoleyl, 5 μM) was 28077 and the “mean fluorescence intensity (EGFP mRNA)” value (ARPE19 cells; Palmitoleyl, 10 μM) was 4574. The “mean fluorescence intensity (EGFP mRNA)” value (ARPE19 cells; Petroselinyl, 2.5 μM) was 6471, the “mean fluorescence intensity (EGFP mRNA)” value (ARPE19 cells; Petroselinyl, 5 μM) was 38057 and the “mean fluorescence intensity (EGFP mRNA)” value (ARPE19 cells; Petroselinyl, 10 μM) was 29449. The “mean fluorescence intensity (EGFP mRNA)” value (HCT116 cells; Myristoleyl, 2.5 μM) was 76926, the “mean fluorescence intensity (EGFP mRNA)” value (HCT116 cells; Myristoleyl, 5 μM) was 19128 and the “mean fluorescence intensity (EGFP mRNA)” value (HCT116 cells; Palmitoleyl, 2.5 μM) was 32455. The “mean fluorescence intensity (EGFP mRNA)” value (HCT116 cells; Palmitoleyl, 5 μM) was 26406, the “mean fluorescence intensity (EGFP mRNA)” value (HCT116 cells; Palmitoleyl, 10 μM) was 6504 and the “mean fluorescence intensity (EGFP mRNA)” value (HCT116 cells; Petroselinyl, 2.5 μM) was 5653. For the same compound, the “mean fluorescence intensity (EGFP mRNA)” value (HCT116 cells; Petroselinyl, 5 μM) was 19656, the “mean fluorescence intensity (EGFP mRNA)” value (HCT116 cells; Petroselinyl, 10 μM) was 9118 and the “mean fluorescence intensity (EGFP mRNA)” value (Hek293 cells; Dodecanal, 2.5 μM) was 1201. For the same compound, the “mean fluorescence intensity (EGFP mRNA)” value (Hek293 cells; Dodecanal, 5 μM) was 588, the “mean fluorescence intensity (EGFP mRNA)” value (Hek293 cells; Dodecanal, 10 μM) was 3588 and the “mean fluorescence intensity (EGFP mRNA)” value (Hek293 cells; Myristoleyl, 2.5 μM) was 21438. For the same compound, the “mean fluorescence intensity (EGFP mRNA)” value (Hek293 cells; Myristoleyl, 5 μM) was 11945, the “mean fluorescence intensity (EGFP mRNA)” value (Hek293 cells; Myristoleyl, 10 μM) was 1626 and the “mean fluorescence intensity (EGFP mRNA)” value (Hek293 cells; Oleyl, 2.5 μM) was 9690. For the same compound, the “mean fluorescence intensity (EGFP mRNA)” value (Hek293 cells; Oleyl, 5 μM) was 17787, the “mean fluorescence intensity (EGFP mRNA)” value (Hek293 cells; Oleyl, 10 μM) was 1626 and the “mean fluorescence intensity (EGFP mRNA)” value (Hek293 cells; Palmitoleyl, 2.5 μM) was 13282. For the same compound, the “mean fluorescence intensity (EGFP mRNA)” value (Hek293 cells; Palmitoleyl, 5 μM) was 12872, the “mean fluorescence intensity (EGFP mRNA)” value (Hek293 cells; Palmitoleyl, 10 μM) was 4716 and the “mean fluorescence intensity (EGFP mRNA)” value (Hek293 cells; Petroselinyl, 2.5 μM) was 29561. For the same compound, the “mean fluorescence intensity (EGFP mRNA)” value (Hek293 cells; Petroselinyl, 5 μM) was 12351, the “mean fluorescence intensity (EGFP mRNA)” value (Hek293 cells; Petroselinyl, 10 μM) was 6511 and the “percentage of GFP-silencing relative to siMOCK” value ([1]; Dodecanal, 5 μM) was 10%. For the same compound, the “percentage of GFP-silencing relative to siMOCK” value ([1]; Myristoleyl, 5 μM) was 45%, the “percentage of GFP-silencing relative to siMOCK” value ([1]; Myristoleyl, 10 μM) was 45% and the “percentage of GFP-silencing relative to siMOCK” value ([1]; Oleyl, 5 μM) was 15%. For the same compound, the “percentage of GFP-silencing relative to siMOCK” value ([1]; Oleyl, 10 μM) was 47%, the “percentage of GFP-silencing relative to siMOCK” value ([1]; Oleyl, 15 μM) was 46% and the “percentage of GFP-silencing relative to siMOCK” value ([1]; Palmitoleyl, 5 μM) was 49%. The “percentage of GFP-silencing relative to siMOCK” value ([1]; Palmitoleyl, 10 μM) was 65%, the “percentage of GFP-silencing relative to siMOCK” value ([1]; Palmitoleyl, 15 μM) was 40% and the “percentage of GFP-silencing relative to siMOCK” value ([1]; Petroselinyl, 5 μM) was 5%.
